Assay in all cases: NADPH oxidation at […] nm, Michaelis-Menten fit
What all share (assay type): biochemical, Aspergillus niger
Common to all, as to conditions: 0.2 mM NADPH, HEPES pH 7.0

Experiment [1] concerns T1, SrdE.
T1 construct: cDNA in pET-28a(+), His-tag purified from E. coli

For experiment [2], the system named is T2, XyrB.
T2 construct: recombinant plasmid from a previous study, His-tag purified from E. coli

The test system of experiment [3] is T3, SrdB.
T3 construct: cDNA in pET-28a(+), His-tag purified from E. coli

Km data for two compounds are collected here from article PMC10744612, “Genome Mining Reveals a Surprising Number of Sugar Reductases in Aspergillus niger” (Journal of Fungi, 2023).

SMILES strings stand for the structures. Where two headings read alike, the source gives them in different places.

For the compound `OC1OC[C@@H](O)[C@H](O)[C@H]1O` (stereo partly drawn) [D-xylose], the results for the Km in experiment [1] (read-out: D-xylose / Km), in experiment [2] (read-out: D-xylose / Km) and in experiment [3] (read-out: D-xylose / Km) were 1.1 mM, 3 mM and 2.8 mM, respectively.

On to `OC1OC[C@H](O)[C@H](O)[C@H]1O` (stereo partly drawn) [L-arabinose], for which the Km in experiment [1] (read-out: L-arabinose / Km) came out at 4.3 mM; in experiment [2] (read-out: L-arabinose / Km) it was 12.3 mM; in experiment [3] (read-out: L-arabinose / Km) it was 4.5 mM.
